{"source": "patent US20220175638A1", "about": "“CELL ACTIVATOR” (Shiseido Company, Ltd., priority 2019, published 2022)", "key": {"[1]": {"tested_on": "Human skin fibroblasts", "experiment": "Experiment 2: cellular activity at different C-phycocyanin concentrations and UV doses", "assay_type": "cell-based", "details": "UV 0, 10, 25, 50, 75 and 100 mJ/cm^2, FIG. 3", "description": "(§1) 1. Human skin fibroblasts (purchased from Kurabo) and human skin keratinocytes (purchased from Kurabo or PromoCell) were used. A cell suspension (1 mL) stored with liquid nitrogen was placed in a hot water bath (37° C.) and thawed until small ice pellets remained, and then diluted with 9 mL of warm medium. 2. The diluted suspension was gently mixed and transferred to a T75 flask, and incubated overnight at 37° C. 3. On the following day, the medium was exchanged with 10 mL of fresh medium. 4. The medium was periodically exchanged (once every 2 days for fibroblasts, or once every 2 to 3 days for keratinocytes), while continuing growth of the cells. During this time, a microscope was used to observe the cells and to confirm that the cells had proliferated with the proper form. 5. Once the cells reached approximately 80% confluence, they were subcultured. Subculturing of the cells was carried out by rinsing once in 10 mL of warm PBS, after which 5 mL of warm trypsin was added to the T75 flask to cover the bottom of the flask with the trypsin solution, and the mixture was suctioned after standing for 1 minute at room temperature. 6. The flask was set in an oven at 37° C. for 2 minutes (maximum) for fibroblasts and 7 minutes (maximum) for keratinocytes. A microscope was used to observe the cells, confirming that they were small and elliptical. 7. […]"}, "[2]": {"tested_on": "Human skin fibroblasts", "experiment": "Experiment 3: restoration of UV irradiation-reduced cellular activity", "assay_type": "cell-based", "details": "pre-irradiation 400 mJ/cm^2 without substance, then UV 0-200 mJ/cm^2 through 0.4% or 2% C-phycocyanin; FIG. 5", "description": "as §1"}}}
{"substance": "C-phycocyanin", "values": [{"measurement": "cellular activity (relative fluorescence intensity)", "setting": "[1]; 0.4% C-phycocyanin", "result": "reduction in cellular activity was inhibited even under UV irradiation"}, {"measurement": "cellular activity (relative fluorescence intensity)", "setting": "[1]; 2% C-phycocyanin", "result": "accelerated cellular activity even above the level with no UV irradiation"}, {"measurement": "cellular activity of cells with previously lowered activity", "setting": "[2]", "result": "cellular activity was restored"}]}
